# Source: ChEMBL document CHEMBL1201862, “PubChem BioAssay data set” (2004)
# Activity calls are given as the source filed them.
# Columns and labels:
# [1] = target: Histone-lysine N-methyltransferase NSD2 (Homo sapiens, UniProt O96028); assay type: biochemical
# Protein RecA = target: T1, Protein RecA (Mycobacterium tuberculosis, UniProt P9WHJ3); assay: Fluorescence Cell-Free Homogeneous Dose Retest to Identify Inhibitors of RecA-Intein Splicing Activity. [Related pubchem assays (depositor defined):AID2097, AID2223, AID489010, AID492950]; assay type: functional
# T1 sequence (P9WHJ3 whole entry): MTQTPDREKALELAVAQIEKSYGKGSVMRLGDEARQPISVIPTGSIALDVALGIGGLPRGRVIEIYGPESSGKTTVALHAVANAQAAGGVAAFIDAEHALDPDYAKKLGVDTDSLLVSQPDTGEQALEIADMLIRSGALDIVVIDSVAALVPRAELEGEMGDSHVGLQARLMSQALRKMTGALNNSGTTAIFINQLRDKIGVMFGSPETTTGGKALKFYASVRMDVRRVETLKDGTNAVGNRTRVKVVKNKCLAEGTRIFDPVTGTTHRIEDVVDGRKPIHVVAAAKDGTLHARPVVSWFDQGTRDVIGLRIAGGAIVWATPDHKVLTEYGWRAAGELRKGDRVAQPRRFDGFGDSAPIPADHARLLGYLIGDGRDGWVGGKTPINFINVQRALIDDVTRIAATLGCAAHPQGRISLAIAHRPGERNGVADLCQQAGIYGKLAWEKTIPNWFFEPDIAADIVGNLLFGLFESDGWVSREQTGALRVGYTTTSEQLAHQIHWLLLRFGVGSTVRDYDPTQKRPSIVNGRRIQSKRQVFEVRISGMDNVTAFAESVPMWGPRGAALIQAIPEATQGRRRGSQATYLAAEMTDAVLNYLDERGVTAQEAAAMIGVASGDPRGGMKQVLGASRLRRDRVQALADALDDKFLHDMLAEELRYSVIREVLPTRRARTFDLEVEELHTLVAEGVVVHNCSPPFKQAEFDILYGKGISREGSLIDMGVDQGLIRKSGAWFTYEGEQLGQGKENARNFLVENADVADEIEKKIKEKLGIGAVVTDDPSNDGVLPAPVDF
# [2] = target: T2, Replicative DNA helicase DnaB (Mycobacterium tuberculosis, UniProt P9WMR3); assay: DnaB intein splicing inhibitors, dose response, biochemical, cell-free fluorescence (AID 449749); assay type: functional
# T2 sequence (P9WMR3 whole entry): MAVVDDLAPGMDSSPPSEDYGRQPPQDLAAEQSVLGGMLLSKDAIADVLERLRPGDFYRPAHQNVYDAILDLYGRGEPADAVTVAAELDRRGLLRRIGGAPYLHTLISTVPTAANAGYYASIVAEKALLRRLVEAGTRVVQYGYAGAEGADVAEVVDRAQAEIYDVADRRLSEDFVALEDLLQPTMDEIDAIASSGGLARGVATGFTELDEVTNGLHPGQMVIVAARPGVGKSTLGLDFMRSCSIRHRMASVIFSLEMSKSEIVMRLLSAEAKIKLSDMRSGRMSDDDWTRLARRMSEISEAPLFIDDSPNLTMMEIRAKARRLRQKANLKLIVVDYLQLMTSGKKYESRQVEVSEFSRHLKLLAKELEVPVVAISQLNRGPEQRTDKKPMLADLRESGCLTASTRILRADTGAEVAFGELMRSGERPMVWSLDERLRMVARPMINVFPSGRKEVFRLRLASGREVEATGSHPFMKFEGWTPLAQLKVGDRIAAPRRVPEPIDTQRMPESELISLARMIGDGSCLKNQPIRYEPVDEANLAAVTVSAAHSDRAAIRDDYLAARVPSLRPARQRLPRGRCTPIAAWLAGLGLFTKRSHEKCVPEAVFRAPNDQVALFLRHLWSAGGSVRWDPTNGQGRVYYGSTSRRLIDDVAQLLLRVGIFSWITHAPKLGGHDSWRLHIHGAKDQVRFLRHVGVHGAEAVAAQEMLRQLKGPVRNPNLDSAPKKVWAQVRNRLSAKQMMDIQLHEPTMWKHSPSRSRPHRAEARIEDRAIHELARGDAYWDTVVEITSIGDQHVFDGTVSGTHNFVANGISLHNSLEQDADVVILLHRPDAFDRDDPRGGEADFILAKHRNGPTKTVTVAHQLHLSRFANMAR
# Caspase-6 = Caspase-6 (Homo sapiens, UniProt P55212); assay: inhibition of CASP6 peptide cleavage – biochemical, VEID-R110 fluorescence, cherry-pick, dose response (AID 720632)
# [3] = target: DNA (cytosine-5)-methyltransferase 1 (Homo sapiens, UniProt P26358); assay: inhibition of DNA methylation by DNMT1 – biochemical, fluorescent molecular beacon, confirmation (AID 602386); assay type: functional
# [4] = target: Glutathione-S-transferase (Schistosoma japonicum, UniProt Q26513); assay: GST-antibody interaction or FRET quenching – biochemical, TR-FRET, artefact control for Vif-APOBEC3G degradation inhibitor project, dose response (AID 1117362); assay type: functional
# Large T antigen = Large T antigen (Simian virus 40, UniProt P03070); assay type: functional, Betapolyomavirus macacae;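 note: Confirmatory-stage PubChem screen for compounds that inhibit SV40 T antigen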
# 14-3-3 protein gamma = 14-3-3 protein gamma (Homo sapiens, UniProt P61981); assay: modulators of 14-3-3 gamma client binding – dose response (AID 711); assay type: functional
# [5] = HIV-1 Vif–A3G interaction blockers – biochemical, TR-FRET, GST-Vif 1-94, biotin-A3G peptide, dose response retest, primary screen (AID 1117319); assay type: functional;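 note: TR-FRET signal of purified GST-Vif binding a biotinylated A3G peptide; inhibitors lower the FRET signal by blocking Vif and A3G binding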
# [6] = target: Voltage-dependent T-type calcium channel subunit alpha-1H (Homo sapiens, UniProt O95180); assay type: functional;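 note: channel activity triggered by adding a high calcium stimulation buffer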
# Ephrin type-A receptor 4 = Ephrin type-A receptor 4 (Mus musculus, UniProt Q03137); assay: EphA4 ligand-binding antagonists – biochemical, colorimetric, mouse EphA4, primary screen (AID 689); assay type: functional
# [7] = target: T3, Endoribonuclease toxin MazF (Escherichia coli K-12, UniProt P0AE70); assay: activation of MazEF endoribonuclease cleavage – biochemical, fluorescence, single-stranded RNA substrate, uHTS hits, dose response (AID 588481); assay type: functional
# T3 sequence (P0AE70 whole entry): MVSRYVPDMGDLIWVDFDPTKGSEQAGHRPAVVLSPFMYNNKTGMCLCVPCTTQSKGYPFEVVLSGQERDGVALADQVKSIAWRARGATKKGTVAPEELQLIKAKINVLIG
# [8] = target: T3, Endoribonuclease toxin MazF; assay: substrate-only fluorescence increase artefacts – biochemical, single-stranded RNase substrate, counter-screen for MazEF activator project, dose response (AID 588502); assay type: functional
# H9c2 = assay: cells; assay type: functional, cell-based; conditions: Rattus norvegicus, H9c2, Myocardium;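 note: confirmatory concentration-response retest of ultra-high-throughput screening hits for modulation of myocardial damage; cell death induced by hydrogen peroxide oxidative stress; compound pretreatment for 60 min then peroxide exposure for 2 h; potency is for protecting the cells against peroxide damage rather than for killing them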
# Streptokinase A = target: T4, Streptokinase A (Streptococcus pyogenes serotype M1, UniProt P10520); assay: viability-normalized secreted streptokinase activity reduction – plasminogen activation absorbance, OD405, dose response (AID 1914); assay type: functional, Streptococcus pyogenes M1 GAS;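 note: secreted streptokinase activity via plasminogen activation per viability signal from cell pellet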
# T4 sequence (P10520 whole entry): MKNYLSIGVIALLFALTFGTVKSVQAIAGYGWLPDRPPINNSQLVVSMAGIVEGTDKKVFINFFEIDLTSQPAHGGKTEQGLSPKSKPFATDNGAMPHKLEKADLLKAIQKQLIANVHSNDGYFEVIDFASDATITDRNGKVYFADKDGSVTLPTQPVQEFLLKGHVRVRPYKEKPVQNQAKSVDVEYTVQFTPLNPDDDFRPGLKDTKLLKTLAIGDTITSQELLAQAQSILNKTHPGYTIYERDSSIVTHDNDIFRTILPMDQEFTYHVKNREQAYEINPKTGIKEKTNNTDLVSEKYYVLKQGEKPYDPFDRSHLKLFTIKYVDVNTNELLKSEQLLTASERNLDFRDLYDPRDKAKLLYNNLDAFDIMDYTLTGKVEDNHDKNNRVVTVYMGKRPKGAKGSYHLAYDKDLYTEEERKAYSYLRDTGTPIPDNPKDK
# Streptococcus = assay: GAS UMAA2166 growth inhibition – luminescence, BacTiterGlo, counter-screen for streptokinase expression inhibitor project, dose response (AID 1915); assay type: functional, organism-based;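 note: potency for reduction of bacterial viability or growth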
# [9] = tested on: Streptococcus sp. 'group A'; assay: Streptococcus pyogenes SK(-)GAS viability under kanamycin – luminescence, BacTiterGlo, confirmation, counter-screen for streptokinase expression inhibitor project, dose response (AID 1900); assay type: functional, organism-based
# [10] = OVCAR-3 cell viability loss – plate reader, dry powder samples, PAX8 inhibitor project, dose response (AID 743044); assay type: functional, cell-based
# [11] = A2780 cell killing – plate reader, dry powder samples, cytotoxicity control, dose response (AID 743046); assay type: functional, cell-based
# [12] = OVCAR8 cell viability loss – plate reader, dry powder samples, PAX8 project, dose response (AID 743197); assay type: functional, cell-based; conditions: OVCAR-8
# Paired box protein Pax-8 = Paired box protein Pax-8 (Homo sapiens, UniProt Q06710); assay: PAX8 transcriptional activity inhibition in RMG-I – RMG-I cells, luciferase, cherry-pick, dose response (AID 687027); assay type: functional, cell-based;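 note: luciferase reporter driven by Pax8 target thyroperoxidase promoter measured by SteadyGlo luminescence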
# [13] = inhibitors of non-replicating M. tuberculosis, dose response, luciferase, dry powder (AID 651619); assay type: functional
# [14] = inhibitors of non-replicating M. tuberculosis, dose response, luciferase, dry powder (AID 651620); assay type: functional
# [15] = target: NAD-dependent protein deacylase sirtuin-5, mitochondrial (Homo sapiens, UniProt Q9NXA8); assay: blockers of sirtuin-5 peptide desuccinylation – biochemical, fluorescence imaging, cherry-pick, set 6, dose response (AID 720597)
# [16] = Reduced DLD-1 viability, concentration-response, CellTiter-Glo luminescence (AID 1117352); assay type: functional
# [17] = cytotoxicity toward Colo320 cells – cell-based, CellTiter-Glo luminescence, IC50, dose response (AID 1117334); assay type: functional; conditions: COLO 320
# [18] = SNU-C1 cell viability reduction, dose response, CellTiter-Glo luminescence (AID 1117323); assay type: functional, cell-based
# [19] = HCT116 cell viability decrease, GSK3B pretreatment – CellTiter-Glo, IC50, dose response (AID 1117339); assay type: functional; conditions: HCT-116
# [20] = cytotoxicity toward HT-29 cells – cell-based, CellTiter-Glo luminescence, IC50, dose response (AID 1117330); assay type: functional
# [21] = CellTiter-Glo luminescence survival assay, SW480 colon tumor line, concentration-response curve, half-maximal inhibitory concentration (AID 1117338); assay type: functional
# [22] = RKO cell viability reduction, dose response, CellTiter-Glo luminescence (AID 1117322); assay type: functional
# [23] = cytotoxicity toward HCT116 cells – cell-based, CellTiter-Glo luminescence, IC50, dose response (AID 1117332); assay type: functional; conditions: HCT-116
# Glutathione-S-transferase, sequence (Q26513 whole entry): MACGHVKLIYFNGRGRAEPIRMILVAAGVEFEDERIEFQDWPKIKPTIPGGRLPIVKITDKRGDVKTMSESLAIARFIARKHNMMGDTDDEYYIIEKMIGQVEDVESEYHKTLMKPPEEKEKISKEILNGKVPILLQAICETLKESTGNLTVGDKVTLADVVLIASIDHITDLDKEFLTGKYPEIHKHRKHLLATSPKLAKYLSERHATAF
# Ephrin type-A receptor 4, sequence (Q03137 whole entry): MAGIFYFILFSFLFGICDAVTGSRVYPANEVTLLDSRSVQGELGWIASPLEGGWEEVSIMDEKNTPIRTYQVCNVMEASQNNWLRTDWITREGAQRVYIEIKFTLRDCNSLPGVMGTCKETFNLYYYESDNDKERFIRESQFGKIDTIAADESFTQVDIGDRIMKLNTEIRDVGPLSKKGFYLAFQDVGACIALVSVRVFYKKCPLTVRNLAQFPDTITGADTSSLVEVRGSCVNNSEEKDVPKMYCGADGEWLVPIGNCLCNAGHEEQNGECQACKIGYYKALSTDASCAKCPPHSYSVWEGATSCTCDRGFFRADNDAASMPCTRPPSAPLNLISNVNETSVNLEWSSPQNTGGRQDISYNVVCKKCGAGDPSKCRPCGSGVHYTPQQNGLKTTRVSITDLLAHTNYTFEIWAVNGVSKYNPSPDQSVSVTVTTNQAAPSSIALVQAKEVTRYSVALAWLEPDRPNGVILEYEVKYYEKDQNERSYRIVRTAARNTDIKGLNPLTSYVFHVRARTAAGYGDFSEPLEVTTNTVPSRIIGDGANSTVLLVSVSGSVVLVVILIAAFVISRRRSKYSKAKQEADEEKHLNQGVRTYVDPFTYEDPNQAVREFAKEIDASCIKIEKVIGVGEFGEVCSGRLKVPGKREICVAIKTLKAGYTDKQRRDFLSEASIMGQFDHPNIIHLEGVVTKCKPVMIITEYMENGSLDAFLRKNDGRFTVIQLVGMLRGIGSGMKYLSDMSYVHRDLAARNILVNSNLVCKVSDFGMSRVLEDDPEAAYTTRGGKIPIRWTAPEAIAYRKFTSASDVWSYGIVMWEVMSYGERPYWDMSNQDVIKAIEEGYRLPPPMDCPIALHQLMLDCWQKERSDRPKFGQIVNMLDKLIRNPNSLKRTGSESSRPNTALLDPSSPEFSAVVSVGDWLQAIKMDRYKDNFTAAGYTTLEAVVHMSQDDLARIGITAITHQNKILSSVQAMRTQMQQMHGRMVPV
# NAD-dependent protein deacylase sirtuin-5, mitochondrial, sequence (Q9NXA8 whole entry): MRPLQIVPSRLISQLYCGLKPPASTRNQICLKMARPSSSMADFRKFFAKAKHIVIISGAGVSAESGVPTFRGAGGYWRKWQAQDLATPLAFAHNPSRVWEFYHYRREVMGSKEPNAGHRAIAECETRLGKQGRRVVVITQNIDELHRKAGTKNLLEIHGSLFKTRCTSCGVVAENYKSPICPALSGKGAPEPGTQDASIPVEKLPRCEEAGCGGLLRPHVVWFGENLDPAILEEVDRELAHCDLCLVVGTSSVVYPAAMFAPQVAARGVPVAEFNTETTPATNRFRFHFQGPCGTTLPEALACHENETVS
# Paired box protein Pax-8, sequence (Q06710 whole entry): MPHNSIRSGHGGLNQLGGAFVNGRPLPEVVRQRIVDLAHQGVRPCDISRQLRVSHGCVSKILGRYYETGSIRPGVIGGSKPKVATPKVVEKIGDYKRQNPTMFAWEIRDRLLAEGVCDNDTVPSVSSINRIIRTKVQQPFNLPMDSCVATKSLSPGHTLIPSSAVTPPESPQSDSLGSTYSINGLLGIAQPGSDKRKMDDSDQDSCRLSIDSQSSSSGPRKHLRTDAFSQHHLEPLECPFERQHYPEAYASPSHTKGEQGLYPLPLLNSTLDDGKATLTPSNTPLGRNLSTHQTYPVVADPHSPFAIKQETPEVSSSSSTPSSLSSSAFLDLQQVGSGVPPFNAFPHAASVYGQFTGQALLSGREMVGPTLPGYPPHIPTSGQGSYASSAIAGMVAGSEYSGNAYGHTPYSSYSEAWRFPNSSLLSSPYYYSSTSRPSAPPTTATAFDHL
# Voltage-dependent T-type calcium channel subunit alpha-1H, sequence (O95180 whole entry): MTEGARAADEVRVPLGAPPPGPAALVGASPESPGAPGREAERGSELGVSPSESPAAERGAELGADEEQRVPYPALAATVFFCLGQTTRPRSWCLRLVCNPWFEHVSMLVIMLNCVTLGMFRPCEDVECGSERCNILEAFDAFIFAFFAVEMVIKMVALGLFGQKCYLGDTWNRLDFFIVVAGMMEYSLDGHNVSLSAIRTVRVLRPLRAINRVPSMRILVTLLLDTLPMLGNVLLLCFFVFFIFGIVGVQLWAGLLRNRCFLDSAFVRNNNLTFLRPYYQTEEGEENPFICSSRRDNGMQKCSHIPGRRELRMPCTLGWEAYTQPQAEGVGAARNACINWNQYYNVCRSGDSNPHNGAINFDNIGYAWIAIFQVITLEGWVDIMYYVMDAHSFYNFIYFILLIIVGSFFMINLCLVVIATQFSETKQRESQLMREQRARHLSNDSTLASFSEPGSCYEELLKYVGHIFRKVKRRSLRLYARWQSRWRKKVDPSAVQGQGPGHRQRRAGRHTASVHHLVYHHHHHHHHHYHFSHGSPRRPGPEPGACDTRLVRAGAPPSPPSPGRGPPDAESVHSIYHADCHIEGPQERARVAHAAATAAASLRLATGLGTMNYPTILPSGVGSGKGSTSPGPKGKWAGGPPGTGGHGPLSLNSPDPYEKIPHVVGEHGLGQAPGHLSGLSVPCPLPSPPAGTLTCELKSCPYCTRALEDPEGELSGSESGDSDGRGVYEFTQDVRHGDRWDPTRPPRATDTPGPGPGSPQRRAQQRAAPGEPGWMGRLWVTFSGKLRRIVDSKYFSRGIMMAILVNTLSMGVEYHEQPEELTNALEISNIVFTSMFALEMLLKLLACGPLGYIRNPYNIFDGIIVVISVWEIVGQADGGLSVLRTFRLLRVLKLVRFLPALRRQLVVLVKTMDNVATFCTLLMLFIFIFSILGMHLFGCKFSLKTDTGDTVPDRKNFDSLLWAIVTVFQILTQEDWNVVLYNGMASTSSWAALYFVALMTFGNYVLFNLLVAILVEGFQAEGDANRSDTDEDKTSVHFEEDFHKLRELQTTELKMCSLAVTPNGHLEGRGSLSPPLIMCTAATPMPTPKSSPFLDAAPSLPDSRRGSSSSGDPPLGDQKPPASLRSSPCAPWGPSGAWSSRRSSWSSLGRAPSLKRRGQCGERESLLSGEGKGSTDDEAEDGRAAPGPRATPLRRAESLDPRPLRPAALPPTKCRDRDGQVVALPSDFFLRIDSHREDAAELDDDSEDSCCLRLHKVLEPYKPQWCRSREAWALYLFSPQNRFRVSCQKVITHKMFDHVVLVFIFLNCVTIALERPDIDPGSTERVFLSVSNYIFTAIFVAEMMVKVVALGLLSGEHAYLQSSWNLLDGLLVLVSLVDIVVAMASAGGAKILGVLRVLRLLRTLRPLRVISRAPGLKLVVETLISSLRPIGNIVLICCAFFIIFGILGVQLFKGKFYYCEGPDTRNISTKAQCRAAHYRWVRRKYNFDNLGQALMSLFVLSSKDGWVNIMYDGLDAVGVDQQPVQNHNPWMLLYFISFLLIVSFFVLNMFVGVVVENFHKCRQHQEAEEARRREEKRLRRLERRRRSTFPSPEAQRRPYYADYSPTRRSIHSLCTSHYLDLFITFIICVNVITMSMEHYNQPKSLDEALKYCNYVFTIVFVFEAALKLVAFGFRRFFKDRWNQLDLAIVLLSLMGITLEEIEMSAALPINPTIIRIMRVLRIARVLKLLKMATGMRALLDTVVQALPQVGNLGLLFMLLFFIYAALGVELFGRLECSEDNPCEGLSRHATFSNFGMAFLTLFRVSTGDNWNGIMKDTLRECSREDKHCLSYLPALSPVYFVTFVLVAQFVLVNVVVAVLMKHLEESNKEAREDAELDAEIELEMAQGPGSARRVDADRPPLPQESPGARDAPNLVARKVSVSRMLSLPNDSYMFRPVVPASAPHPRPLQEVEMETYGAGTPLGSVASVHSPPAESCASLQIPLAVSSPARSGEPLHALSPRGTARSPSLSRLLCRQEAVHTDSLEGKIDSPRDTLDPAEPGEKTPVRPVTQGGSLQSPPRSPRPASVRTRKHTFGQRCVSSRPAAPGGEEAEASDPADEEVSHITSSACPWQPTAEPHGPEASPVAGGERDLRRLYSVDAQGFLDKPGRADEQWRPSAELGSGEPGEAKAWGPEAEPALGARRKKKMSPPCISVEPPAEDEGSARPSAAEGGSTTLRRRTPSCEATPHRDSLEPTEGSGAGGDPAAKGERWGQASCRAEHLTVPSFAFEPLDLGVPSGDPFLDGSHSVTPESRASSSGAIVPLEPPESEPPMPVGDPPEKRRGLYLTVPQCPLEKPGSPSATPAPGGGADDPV
# Large T antigen, sequence (P03070 whole entry): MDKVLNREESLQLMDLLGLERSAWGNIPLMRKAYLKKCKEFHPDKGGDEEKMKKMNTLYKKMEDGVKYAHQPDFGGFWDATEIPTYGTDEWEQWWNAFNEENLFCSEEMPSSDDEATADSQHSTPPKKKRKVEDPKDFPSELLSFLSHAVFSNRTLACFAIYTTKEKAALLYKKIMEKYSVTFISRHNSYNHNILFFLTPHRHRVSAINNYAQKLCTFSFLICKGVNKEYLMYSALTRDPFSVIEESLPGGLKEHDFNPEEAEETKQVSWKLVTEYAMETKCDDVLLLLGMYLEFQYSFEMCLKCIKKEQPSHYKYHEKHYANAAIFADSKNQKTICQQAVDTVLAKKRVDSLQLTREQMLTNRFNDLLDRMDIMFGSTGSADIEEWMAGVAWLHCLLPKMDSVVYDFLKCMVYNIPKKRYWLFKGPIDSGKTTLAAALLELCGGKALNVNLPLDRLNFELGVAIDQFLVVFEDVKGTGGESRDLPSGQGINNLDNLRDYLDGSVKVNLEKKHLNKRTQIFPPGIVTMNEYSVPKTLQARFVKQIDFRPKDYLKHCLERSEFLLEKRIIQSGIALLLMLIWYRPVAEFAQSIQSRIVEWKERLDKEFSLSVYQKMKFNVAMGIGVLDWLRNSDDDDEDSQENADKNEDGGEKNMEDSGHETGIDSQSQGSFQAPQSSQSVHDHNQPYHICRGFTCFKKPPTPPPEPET
smiles,measurement,setting,value
NS(=O)(=O)c1ccc(N=Nc2ccc(O)nc2O)cc1,AC50,[1],> 20 µM (inactive)
same,EC50,Protein RecA,4.4 µM (active)
same,AC50,[2],53.2 µM (active)
same,AC50,Caspase-6,2.07 µM (active)
same,IC50,[3],7.65 µM (active)
Nc1ccc(-c2nc3cc(N)ccc3n2CCO)cc1,IC50,[4],> 100 µM (active)
same,IC50,Large T antigen,41.7 µM (active)
CN(C)S(=O)(=O)CC12CCC(CC1=O)C2(C)C (stereo unspecified),IC50,14-3-3 protein gamma,> 50 µM (not active)
CCN(CC)C(=O)c1ccc(CS(=O)(=O)c2ccc(OC)cc2)o1,IC50,[5],> 100 µM (active)
COc1ccc(C(c2nnnn2Cc2cccs2)N2CCN(c3ccccc3F)CC2)cc1 (stereo unspecified),EC50,[6],18 µM (active)
same,IC50,Ephrin type-A receptor 4,> 100 µM (not active)
C=CCn1c(C)cc(-c2csc(N)n2)c1C,IC50,[4],28.2 µM (active)
CC(C(=O)N1CCOCC1)(c1ccccc1)c1ccccc1,IC50,[5],> 100 µM (active)
CCn1c(O)c(/C=N/N=C/c2ccccc2)c2ccc(C3=NNC(=O)CC3)cc21,EC50,[7],> 99 µM (inactive)
same,EC50,[8],> 99 µM (inactive)
same,IC50,Ephrin type-A receptor 4,> 100 µM (not active)
same,IC50,H9c2,> 79 µM (inactive)
same,EC50,Streptokinase A,> 150 µM (not active)
same,EC50,Streptococcus,10.5 µM (active)
same,EC50,[9],6.42 µM (active)
C[C@H]1CN([C@@H](C)CO)C(=O)Cc2cc(NC(=O)C3CC3)ccc2O[C@@H]1CN(C)Cc1ccc(-c2ccccc2)cc1,AC50,[10],38 µM (active)
same,AC50,[11],21.9 µM (active)
same,AC50,[12],> 70 µM (inactive)
same,AC50,Paired box protein Pax-8,6.35 µM (active)
Clc1ccc(-c2nnc(SCc3cn(Cc4ccccc4)nn3)o2)cc1,IC90,[13],1 µM (active)
same,IC90,[13]; Mycobacterium tuberculosis,2 µM (active)
same,IC90,[14],1 µM (active)
same,IC90,[14]; Mycobacterium tuberculosis,2 µM (active)
C[C@H](CO)N1C[C@H](C)[C@@H](CN(C)C)Oc2ccc(NC(=O)Nc3ccc(F)cc3)cc2CC1=O,AC50,[15],> 30 µM (inactive)
CC(C)CC#Cc1ccc([C@@H]2[C@@H](CO)N3C(=O)CN(C(=O)c4ccccn4)C[C@H]23)cc1,AC50,[15],19.7 µM (active)
CCOC(=O)C=C(C)C=CC[C@@H](C)CCCC(C)C,IC50,[16],> 20 µM (inactive)
same,IC50,[17],> 20 µM (inactive)
same,IC50,[18],> 20 µM (inactive)
same,IC50,[19],> 20 µM (inactive)
same,IC50,[20],> 20 µM (inactive)
same,IC50,[21],> 20 µM (inactive)
same,IC50,[22],> 20 µM (inactive)
same,IC50,[23],> 20 µM (inactive)
O=[N+]([O-])c1cccc(S(=O)(=O)NCCNS(=O)(=O)c2cccc([N+](=O)[O-])c2)c1 [DINSED],IC50,[16],> 20 µM (inactive)
same,IC50,[17],> 20 µM (inactive)
same,IC50,[18],> 20 µM (inactive)
same,IC50,[19],> 20 µM (inactive)
same,IC50,[20],> 20 µM (inactive)
same,IC50,[21],> 20 µM (inactive)
same,IC50,[22],> 20 µM (inactive)
same,IC50,[23],> 20 µM (inactive)
